Key:
[1] = biological target: T1, PRMT1 (Homo sapiens, UniProt Q99873); assay: Radiometric gel assay with [14C]SAM and H4-20, phosphorimaging; type: biochemical; conditions: inhibitor 0.2 mM; PRMT1 0.1 μM, [14C]SAM 20 μM, H4-20 100 μM, 30 min, 30°C
[2] = biological target: T1, PRMT1; assay: Mass spectrometric; type: biochemical; conditions: inhibitor 0.2 mM; PRMT1 1 μM, SAM 200 μM, H4-20 50 μM, 30°C, 3.5 h
[3] = tested on: other PRMTs including PRMT5; conditions: cited from earlier work

T1 sequence (Q99873 1-353 isoform Q99873-3, species assumed): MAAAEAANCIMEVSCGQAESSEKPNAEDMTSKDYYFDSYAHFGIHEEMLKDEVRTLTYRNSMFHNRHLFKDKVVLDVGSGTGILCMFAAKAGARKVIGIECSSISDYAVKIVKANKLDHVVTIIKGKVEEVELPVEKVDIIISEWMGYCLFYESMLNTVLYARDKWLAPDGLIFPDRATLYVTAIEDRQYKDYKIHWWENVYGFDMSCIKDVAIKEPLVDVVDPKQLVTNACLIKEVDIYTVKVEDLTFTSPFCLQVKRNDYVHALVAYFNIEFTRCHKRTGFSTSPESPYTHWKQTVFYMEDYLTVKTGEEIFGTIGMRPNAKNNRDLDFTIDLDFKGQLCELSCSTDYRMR

N=C(N)c1ccc(-c2ccc(-c3ccc(C(=N)N)cc3)o2)cc1 [Furamidine, furamidine]
methylation in radiometric gel assay [1]: methylation was still observed | methyl transfer reaction H4-20 to dimethyl H4-20 (mass spectrum) [2]: incomplete inhibition | selectivity over the other PRMTs including PRMT5 [3]: > 10 fold
